# Experimental data from US9688624B2, “DP2 antagonist and uses thereof” (Brickell Biotech, Inc., priority 2010, dated 2017).
# Structures can show the parent of a compound that is named as a salt. Where two headings read alike, the source gives them in different places.
# Legend:
# [1] = Plasma concentrations in guinea pig DK-PGD2 leukocyte influx study; format: in vivo; conditions: Hartley; for concentration at 18.5 h: read-out: concentration of Compound 1 in plasma
# Method: In the 2 hr study, intravenous DK-PGD2 (IV DK-PGD2) increased the number of peripheral blood leukocytes, mainly lymphocytes, which likely reflects recruitment from bone marrow. […] Plasma concentrations taken 2.5 hours following oral Compound 2 were 45 nM±36 and 120 nM±46 in the 10 mg/kg and 30 mg/kg dose groups, respectively.
# In the 18 hr guinea pig study, a significant increase in peripheral blood leukocytes was also observed following IV DK-PGD2 challenge. […] The concentration of Compound 1 in plasma recovered 18.5 hours following oral dose was 4 nM±7, 21 nM±19 and 17 nM±10 in the 10 mg/kg, 30 mg/kg and 100 mg/kg dose groups, respectively.
# [2] = Thermodynamic aqueous solubility; format: physicochemical
# Method: Example 6: Thermodynamic Aqueous Solubility
# Aqueous solubility was determined by suspending sufficient compound in water to give a maximum final concentration of ≧20 mg·ml-1 of the parent free-form of the compound. The suspension was equilibrated at 25° C. for 24 hours then the pH was measured. The suspension was then filtered through a glass fibre C filter into a 96 well plate unless stated otherwise. The filtrate was then diluted by a factor of 101. Quantitation was by HPLC with reference to a standard solution of approximately 0.25 mg·ml^−1 in DMSO. Different volumes of the standard, diluted and undiluted sample solutions were injected. The solubility was calculated using the peak areas determined by integration of the peak found at the same retention time as the principal peak in the standard injection.
# Analysis was performed on an Agilent HP1100 series system equipped with a diode array detector and using ChemStation software vB.02.01-SR1.
# rat DP2 = rat DP2 (Rattus norvegicus (Rat), UniProt Q6XKD3); assay: In vitro DP2/CRTH2 radioligand ([3H]PGD2) membrane binding assay; conditions: average
# rat DP2, sequence (Q6XKD3 whole entry): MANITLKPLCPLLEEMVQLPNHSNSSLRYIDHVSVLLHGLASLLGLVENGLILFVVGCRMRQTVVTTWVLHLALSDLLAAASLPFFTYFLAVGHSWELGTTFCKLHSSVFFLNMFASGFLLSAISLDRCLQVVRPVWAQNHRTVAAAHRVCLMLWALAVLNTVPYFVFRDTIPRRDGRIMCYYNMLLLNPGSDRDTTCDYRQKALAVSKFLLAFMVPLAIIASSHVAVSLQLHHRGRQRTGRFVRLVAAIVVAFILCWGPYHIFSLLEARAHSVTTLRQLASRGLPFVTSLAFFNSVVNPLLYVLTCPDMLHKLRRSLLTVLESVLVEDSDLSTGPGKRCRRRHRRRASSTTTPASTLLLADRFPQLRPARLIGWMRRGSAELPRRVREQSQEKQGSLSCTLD
# Method: Example 15: In Vitro DP2/CRTH2 Binding Assay
# The ability of Compound 1 to bind to the human DP2 receptor was assessed via a radioligand binding assay using [^3H]PGD2. HEK293 cells stably expressing recombinant human DP2 are resuspended in 10 mM Hepes, 7.4 containing 1 mM DTT, lysed and centrifuged at 75,000×g to pellet the membranes. The membranes are resuspended in 10 mM Hepes, 7.4 containing 1 mM DTT and 10% glycerol to approximately 5 mg protein/ml. Membranes (2-10 μg protein/well) are incubated in 96-well plates with 1 nM [^3H]PGD2 and Compound 1 in Assay Buffer (50 mM Hepes, 10 mM MnCl2, 1 mM EDTA, plus or minus 0.2% human serum albumin, pH 7.4) for 60 minutes at room temperature. The reactions are terminated by rapid filtration through Whatman GF/C glass fibre filter plates. The filter plates were pre-soaked in 0.33% polythylenimine for 30 minutes at room temperature then washed in Wash Buffer (50 mM Hepes, 0.5 M NaCl pH 7.4) prior to harvesting. After harvesting, the filter plates are washed 3 times with 1 ml cold Wash Buffer then dried. Scintillant is then added to the plates and the radioactivity retained on the filters is determined on a Packard TopCount (Perkin Elmer). Specific binding is determined as total radioactive binding minus non-specific binding in the presence of 10 μM PGD2. IC50s were determined using GraphPad prism analysis of drug titration curves. Mouse, rat and guinea pig DP2 receptors were also investigated.
# The binding potency of Compound 1 is only slightly shifted in the presence of species-specific serum albumin.
# [3] = tested on: DK-PGD2-induced peripheral blood leukocyte influx; assay: Guinea pig IV DK-PGD2-induced peripheral blood leukocyte influx; format: in vivo; conditions: for EC50 / ED50: Cavia porcellus, Leukocyte, calculated; for EC50: iv, plasma concentration; for ED50: oral
# Method: Example 19: Guinea Pig IV-DKPGD2-Induced Peripheral Blood Leukocyte to Influx
# The ability of Compound 2 to inhibit leukocyte migration in vivo was assessed using intravenous injection of 13,14-dihydro-15-keto-prostaglandin D2 (DK-PGD2). Methods were adapted from those detailed Shichijo et al., 2003, Journal of Pharmacology and Experimental Therapeutics, 307:518-525. Male Hartley guinea pigs were immunized with ovalbumin (OVA) on day 0 by intraperitoneal (IP) injection of 1 ml of a 100 μg/ml solution in Imject Alum. They were then used in the DK-PGD2 procedure between days 14 and 21. Subjects were randomly assigned to receive either vehicle (0.5% methyl cellulose, 4 ml/kg, oral (PO)) or one of three to four doses of test compound. Two hours or eighteen hours after dosing, animals were anesthetized with ketamine and challenged with DK-PGD2 (1 mg/kg, IV). Thirty minutes after IV administration, blood was collected via the marginal ear vein into EDTA tubes for cell analysis. 10 μl blood was lysed in 190 μl water followed by a further 20-fold dilution in PBS. A 10 μl fraction was mixed with equal parts trypan blue and loaded on a hemocytometer. Cells were visualized at a magnification of 40× using a LabPro light microscope and totals counted and recorded. Cells are expressed as total cells×10^8 per ml of blood Inhibition of this effect is determined statistically using Graphpad prism.
# [4] = Regional dosing study in rat (pharmacokinetics); format: in vivo; conditions: for Tmax / AUC / Cmax / bioavailability / half-life: Sprague-Dawley, in vivo
# Description: Example 11: Regional Dosing Study
# Male Sprague-Dawley rats (weighing from about 200 to about 300 grams) in the fasted state received a single injection of a solution of Compound 2 (5% methocel) in the duodenum, jejunum or ileum. This was compared with PO administration of the same formulation of Compound 2. […]
# [5] = water, listed as Amorphous Compound 2, sodium salt
smiles,measurement,setting,value
"COc1ccc(CC(=O)O)cc1Oc1ccc(NC(=O)C(C)(C)C)cc1CSC(C)(C)C [Compound 1, 2-(3-(2-((tert-butylthio)methyl)-4-(2,2-dimethyl-propionylamino)phenoxy)-4-methoxyphenyl)acetic acid]",concentration at 18.5 h,[1]; 18.5 hours after oral 10 mg/kg,4 nM
same,concentration at 18.5 h,[1]; 18.5 hours after oral 30 mg/kg,21 nM
same,concentration at 18.5 h,[1]; 18.5 hours after oral 100 mg/kg,17 nM
same,Solubility mg/ml Free Base equivalent,"[2]; test solvent pH 1.5, 25° C., 24 hours, listed as Compound 1 Pattern 1",0.013 mg/mL
same,Solubility mg/ml Free Base equivalent,"[2]; test solvent pH 4.0, 25° C., 24 hours, listed as Compound 1 Pattern 1",0.0059 mg/mL
same,solubility at 24 h,"[2]; test solvent pH 5.0, 25 °C, pH 5, aqueous buffer, thermodynamic from solid, test solvent pH 5.0, 25° C., 24 hours, read-out: Solubility mg/ml Free Base equivalent",0.027 mg/mL
same,Solubility mg/ml Free Base equivalent,"[2]; test solvent pH 6.5, 25° C., 24 hours, listed as Compound 1 Pattern 1",0.39 mg/mL
same,Solubility mg/ml Free Base equivalent,"[2]; test solvent pH 7.4, 25° C., 24 hours, listed as Compound 1 Pattern 1",7.6 mg/mL
same,Thermodynamic solubility in water,"[2]; water, listed as Pattern 1 of Compound 1",6200 µg/mL
same,IC50,"rat DP2; 0.2% species-specific albumin, read-out: IC50, radioligand membrane binding on rat DP2",10.4 nM
same,IC50,"rat DP2; without serum albumin, read-out: IC50, inhibition of radiolabeled PGD2 binding to rat DP2",7 nM
same,EC50,"[3]; 18 hr study, read-out: 18-hr EC50, inhibition of IV-DK-PGD2-induced leukocyte influx",18 nM
"COc1ccc(CC(=O)O)cc1Oc1ccc(NC(=O)C(C)(C)C)cc1CSC(C)(C)C [Compound 2, 2-(3-(2-((tert-butylthio)methyl)-4-(2,2-dimethyl-propionylamino)phenoxy)-4-methoxyphenyl)acetic acid, sodium salt]",Tmax,"[4]; iv, 2 mg/kg",0.08 h
same,AUC,"[4]; male, 10 mg/kg, duodenum",5010 ng·h/mL
same,Cmax,"[4]; male, 10 mg/kg, duodenum",4310 ng/mL
same,Tmax,"[4]; male, 10 mg/kg, duodenum",0.25 h
same,bioavailability,"[4]; male, 10 mg/kg, duodenum",27.3%
same,half-life,"[4]; male, 10 mg/kg, duodenum",4.12 h
same,AUC,"[4]; male, 10 mg/kg, ileum",1980 ng·h/mL
same,Cmax,"[4]; male, 10 mg/kg, ileum",610 ng/mL
same,Tmax,"[4]; male, 10 mg/kg, ileum",0.63 h
same,bioavailability,"[4]; male, 10 mg/kg, ileum",10.8%
same,half-life,"[4]; male, 10 mg/kg, ileum",5.06 h
same,AUC,"[4]; male, 10 mg/kg, jejunum",8110 ng·h/mL
same,Cmax,"[4]; male, 10 mg/kg, jejunum",12700 ng/mL
same,Tmax,"[4]; male, 10 mg/kg, jejunum",0.25 h
same,bioavailability,"[4]; male, 10 mg/kg, jejunum",44.2%
same,half-life,"[4]; male, 10 mg/kg, jejunum",5.29 h
same,AUC,"[4]; male, iv, 2 mg/kg",3670 ng·h/mL
same,half-life,"[4]; male, iv, 2 mg/kg",2 h
same,AUC,"[4]; male, po, 10 mg/kg",4370 ng·h/mL
same,Cmax,"[4]; male, po, 10 mg/kg",3060 ng/mL
same,Tmax,"[4]; male, po, 10 mg/kg",0.75 h
same,bioavailability,"[4]; male, po, 10 mg/kg",23.8%
same,half-life,"[4]; male, po, 10 mg/kg",1.5 h
same,site of absorption,[4]; regional dosing,preferentially absorbed in the jejunum
same,concentration at 2.5 h,[1]; 2.5 hours after oral 10 mg/kg,45 nM
same,concentration at 2.5 h,[1]; 2.5 hours after oral 30 mg/kg,120 nM
same,Solubility mg/ml Free Base equivalent,"[2]; test solvent pH 1.5, 25° C., 24 hours, listed as Compound 2 Pattern 1, sodium salt",0.0058 mg/mL
same,pH of Unfiltered Saturated solution,"[2]; test solvent pH 1.5, listed as Compound 2 Pattern 1, sodium salt",2.73
same,Solubility mg/ml Free Base equivalent,"[2]; test solvent pH 4.0, 25° C., 24 hours, listed as Compound 2 Pattern 1, sodium salt",0.0023 mg/mL
same,pH of Unfiltered Saturated solution,"[2]; test solvent pH 4.0, listed as Compound 2 Pattern 1, sodium salt",4.67
same,Solubility mg/ml Free Base equivalent,"[2]; test solvent pH 5.0, 25° C., 24 hours, listed as Compound 2 Pattern 1, sodium salt",0.04 mg/mL
same,pH of Unfiltered Saturated solution,"[2]; test solvent pH 5.0, listed as Compound 2 Pattern 1, sodium salt",5.88
same,Solubility mg/ml Free Base equivalent,"[2]; test solvent pH 6.5, 25° C., 24 hours, listed as Compound 2 Pattern 1, sodium salt",4.1 mg/mL
same,pH of Unfiltered Saturated solution,"[2]; test solvent pH 6.5, listed as Compound 2 Pattern 1, sodium salt",7.06
same,Solubility mg/ml Free Base equivalent,"[2]; test solvent pH 7.4, 25° C., 24 hours, listed as Compound 2 Pattern 1, sodium salt",18.0 mg/mL
same,pH of Unfiltered Saturated solution,"[2]; test solvent pH 7.4, listed as Compound 2 Pattern 1, sodium salt",7.97
same,Thermodynamic solubility in water,[2]; [5],> 20000 µg/mL
same,pH of unfiltered solution,[2]; [5],8.18
same,% inhibition of DK-PGD2-induced peripheral blood leukocyte increase,"[3]; 2 hr study, 10 mg/kg oral",19 (±23) %
same,% inhibition of DK-PGD2-induced peripheral blood leukocyte increase,"[3]; 2 hr study, 30 mg/kg oral",107 (±9) %
same,% inhibition of peripheral blood leukocyte numbers,"[3]; 18 hr study, 10 mg/kg oral",29 (±14) %
same,% inhibition of peripheral blood leukocyte numbers,"[3]; 18 hr study, 30 mg/kg oral",50 (±8) %
same,% inhibition of peripheral blood leukocyte numbers,"[3]; 18 hr study, 100 mg/kg oral",77 (±12) %
same,EC50,"[3]; 2 hr study, read-out: EC50 associated with ED50",50 nM
same,ED50,[3]; 2 hr study,11 mg/kg
same,ED50,[3]; 18 hr study,63 mg/kg
